Seven compounds from patent publication US20190322981A1, “MEANS AND METHODS FOR THE GENERATION OF OLIGODENDROCYTES” (Westfaelische Wilhelms-Universitaet Muenster, priority 2016, published 2019) can be followed below.

Series [1] has as its system iOL (SON-transduced human iPSC-derived NPC). Put plainly: Compound screen: differentiation-promoting effect of drug candidates on iOL (O4 and MBP immunocytochemistry). In kind it is cell-based. To be noted: for toxic influence on iOL: at higher concentrations (tested 0.5, 1, 5 μM); for formation of MBP+ mature iOL relative to T3-treated cultures: drug candidate at 0.5, 1, 5 μM; for effect on formation of O4+ iOL compared to DMSO control: T3 60 ng/ml or drug candidate at 0.5, 1, 5 μM. The method, then: For immunocytochemical analysis, an equal volume of 4% PFA in PBS was added to the culture medium and cells were pre-fixed for 10 min at room temperature (RT). After removing the supernatant, cells were fixed for an additional 15 minutes with 4% PFA in PBS and washed three times with PBS. Fixed cells were permeabilized by adding 0.2% Triton X-100 (Sigma) in PBS for 15 min at RT (This step was omitted for NG2, O4 and GalC staining). Subsequently, blocking was performed by incubating the cells with 5% normal goat serum (NGS; Gibco) and 5% fetal calf serum (FCS; Gibco) for 30 min at RT. Primary antibodies were applied overnight at 4° C. in blocking solution. Following three washing steps with PBS, cells were incubated with Alexa Fluor conjugated secondary antibodies diluted in PBS for 1 h at RT. Cells were subsequently washed three times with PBS, including a Hoechst counterstaining for nuclei in the second washing step. Cells on glass coverslips were mounted in Dako Fluorescent Mounting Medium (Dako) and visualized on a Zeiss LSM700 confocal microscope. Cells on plastic cell culture plates were visualized on a Leica DM16000 B inverted microscope.
To assess the sensitivity of iOL towards differentiation promoting drugs, iPSC-derived NPC were transduced with concentrated SON virus particle as described above. Viral medium was removed after 24 h and replaced with GIM lacking T3. The end of the virus infection period was termed day 0. At day 5 of differentiation, cells were detached, singularized and reseeded at densities of 5×10^4 cells in matrigel-coated 48-well plates or 1.5×10^5 cells in 24-well plates containing matrigel-coated glass coverslips. Cells were allowed to recover in minimum DM consisting of DMEM-F12 with 1:200 N2 supplement, 1:100 B27 supplement lacking vitamin A, 1% penicillin/streptomycin/glutamine, 200 μM AA and 100 μM dbcAMP. After 24 h cells were treated with vehicle alone (0.01% (v/v) DMSO) as a negative control, 60 ng/ml T3 as a positive control, or with a drug candidate dissolved in DMSO at three different concentrations (0.5 μM, 1 μM, 5 μM) in minimum DM. The drug candidates comprised miconazole (Sigma), clobetasol (TCI), benztropine (Sigma), indometacin (Sigma), clemastine (Sigma) and oxybutynin (Sigma). Medium was changed every other day and cells were fixed in 4% PFA for immunocytochemical analysis after 21 days of treatment. Investigators were blinded for immunocytochemical analysis.
Identification of drugs inducing remyelination via promotion of oligodendroglial differentiation presents a promising approach for the treatment of demyelinating disorders like MS. Thus, we assessed whether iOL can be utilized to identify compounds promoting oligodendroglial differentiation. We selected six drug candidates (miconazole, clobetasol, benztropine, indometacin, clemastine and oxybutynin) which have been previously described to promote differentiation or myelination of rodent OL^1, 18-20. iOL cultures were treated with either vehicle (0.01% (v/v) DMSO) as a negative control, thyroid hormone (T3) as a positive control, or the drug candidate dissolved in DMSO at three different concentrations (0.5 μM, 1 μM, 5 μM) (FIG. 7a-d).

For series [2], the system named is MAPT-OL (iOL carrying the N279K MAPT mutation). As to the kind of experiment: Stress-induced cell death: rotenone on O4+ iOL, cleaved CASPASE 3 / O4 double-staining. Format: cell-based, human. The following applies: rotenone 100, 250 and 500 nM, 48 h; all results combined, control cultures set to 100%. The method, then: To examine the effect of rotenone (Sigma) on the viability of iOL derived from either N279K MAPT or Ctrl cells O4^+ iOL were purified using the MACS technology after 21 days of differentiation and replated at a density of 8×10^3 cells per well into matrigel-coated 96-well plates. After another 6 days in DM, cells were treated with either vehicle (0.01% (v/v) DMSO) or rotenone dissolved in DMSO at three different concentrations (100 nM, 250 nM, 500 nM). […] Investigators were blinded for immunocytochemical analysis.
After 28 days of differentiation, O4^+ iOL harboring the N279K mutation (MAPT-OL) were morphologically indistinguishable from their gene corrected control cell lines (MAPT-GC-OL) (FIG. 7e) and featured similar differentiation efficiencies among all cell lines included (FIG. 7f). We next set out to investigate whether the N279K MAPT mutation induces an altered expression of TAU isoforms in iOL. We purified O4^+ iOL using FACS before RNA sample preparation. […] FTDP-17 patients display widespread neurodegeneration due to increased cellular vulnerability. […]

As for `N[C@@H](Cc1cc(I)c(Oc2ccc(O)c(I)c2)c(I)c1)C(=O)O` [T3, Triiodo-L-Thyronine], in series [1] (60 ng/ml T3 (positive control), minimum DM, 21 days, DMSO control 14.01±2.89%), the “O4+ cells” value stood at 28.25±3.47%. Take `CN1[C@@H]2CC[C@H]1C[C@@H](OC(c1ccccc1)c1ccccc1)C2` [benztropine]: in series [1] (21 days), the “toxic influence on iOL” value is listed as “toxic influence”. In addition, the “formation of MBP+ mature iOL relative to T3-treated cultures” value in series [1] (minimum DM, 21 days) is given as “comparable to T3-treated cultures”. Regarding `CN1CCC[C@@H]1CCO[C@](C)(c1ccccc1)c1ccc(Cl)cc1` [clemastine], the “effect on formation of O4+ iOL compared to DMSO control” value in series [1] (minimum DM, 21 days) is “failed to promote the formation of O4^+ iOL”. Besides, in series [1] (21 days), the “toxic influence on iOL” value is “toxic influence”. Turning to `C[C@H]1C[C@H]2[C@@H]3CCC4=CC(=O)C=C[C@]4(C)[C@@]3(F)[C@@H](O)C[C@]2(C)[C@@]1(O)C(=O)CCl` [clobetasol], in series [1] (minimum DM, 21 days), the “formation of MBP+ mature iOL relative to T3-treated cultures” value was “comparable to T3-treated cultures”. Take `Clc1ccc(COC(Cn2ccnc2)c2ccc(Cl)cc2Cl)c(Cl)c1` (stereo not drawn) [miconazole]: the “increase of MBP+ cells compared to DMSO control cultures” value in series [1] (1 μM, minimum DM, 21 days) is listed as “almost tenfold increase”. In addition, the “toxic influence on iOL” value in series [1] (21 days) was “toxic influence”. In series [1] (fivefold higher concentration than the effective 1 μM), the “toxic effect on iOL” value is “toxic effect”. Further, the “differentiation-promoting effect on iOL, ranked among the tested compounds” value in series [1] (six drug candidates compared) is “strongest effect on iOL”.

`CCN(CC)CC#CCOC(=O)C(O)(c1ccccc1)C1CCCCC1` (stereo not drawn) [oxybutynin]: the “effect on formation of O4+ iOL compared to DMSO control” value in series [1] (minimum DM, 21 days) is given as “failed to promote the formation of O4^+ iOL”. Consider `C=C(C)[C@H]1Cc2c(ccc3c2O[C@@H]2COc4cc(OC)c(OC)cc4[C@@H]2C3=O)O1` [rotenone], for which the “average increase of cell death (cleaved CASPASE-3+ iOL) in MAPT-OL” value in series [2] is listed as 48.9±18.7%.
